Here are results for two compounds from patent EP4818324A1, “BIOLOGICAL METHOD FOR PREPARING 1,2-PROPANEDIOL” (Tianjin University, priority 2023, dated 2025).

For assay [1], the system named is Lactiplantibacillus plantarum 1,5-anhydroglucitol-6-phosphate isomerase LpYbiW (Uniprot A0A807DR53), SEQ ID NO: 2. As to the kind of experiment: Michaelis-Menten kinetics of LpYbiW, coupled with LpFsaA and EcGldA, NADH consumption at A340nm. Type of assay: biochemical. The settings on record: substrate 1,5-anhydroglucitol-6-phosphate at varying concentrations; 100 nM activated LpYbiW, 20 mM Tris/HCl pH 7.5, 100 mM KCl, 0.4 mM NADH, glove box. As for the experimental part:
The Michaelis-Menten kinetic parameters of LpYbiW were determined by coupling with LpFsaA and EcGldA. The reaction rate of LpYbiW was monitored by measuring NADH consumption at A340nm. The absorbance change of the reaction system at 340 nm was measured every 5 seconds using the cuvette mode of an ultra-micro UV-visible spectrophotometer (Nanophotometer) in a glove box (1 cm light path). These reaction systems consisted of 100 nM activated LpYbiW, 20 mM Tris/HCl, (pH 7.5), 100 mM KCl, 1,5-anhydroglucitol-6-phosphate with varying concentrations, 5 µM LpFsaA, 5 µM EcGldA, and 0.4 mM NADH.

For assay [2], the target named is T1, Escherichia coli strain K12 1,5-anhydromannitol-6-phosphate isomerase EcPflD (Uniprot P32674), SEQ ID NO: 98 (Escherichia coli, UniProt P32674).
T1 sequence (P32674 1-765): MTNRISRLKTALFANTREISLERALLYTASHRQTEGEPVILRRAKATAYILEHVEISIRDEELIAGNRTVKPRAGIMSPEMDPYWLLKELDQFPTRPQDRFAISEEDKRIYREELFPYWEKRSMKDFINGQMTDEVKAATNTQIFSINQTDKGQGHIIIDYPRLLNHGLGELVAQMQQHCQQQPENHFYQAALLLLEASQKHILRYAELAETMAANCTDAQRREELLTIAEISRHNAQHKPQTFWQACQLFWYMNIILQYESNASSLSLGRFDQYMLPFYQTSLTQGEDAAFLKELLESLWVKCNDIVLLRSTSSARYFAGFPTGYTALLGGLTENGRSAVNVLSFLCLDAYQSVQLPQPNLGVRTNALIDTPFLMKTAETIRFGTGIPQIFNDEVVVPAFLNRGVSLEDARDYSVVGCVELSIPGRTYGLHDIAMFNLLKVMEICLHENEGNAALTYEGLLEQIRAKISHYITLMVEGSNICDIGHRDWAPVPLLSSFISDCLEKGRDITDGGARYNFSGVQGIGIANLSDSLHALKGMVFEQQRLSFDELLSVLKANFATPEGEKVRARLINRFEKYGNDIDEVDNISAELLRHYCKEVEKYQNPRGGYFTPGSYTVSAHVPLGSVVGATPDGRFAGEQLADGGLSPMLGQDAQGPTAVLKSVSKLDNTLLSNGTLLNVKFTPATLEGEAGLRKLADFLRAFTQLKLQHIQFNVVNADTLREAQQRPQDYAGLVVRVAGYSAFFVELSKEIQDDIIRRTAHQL
As to the kind of experiment: Michaelis-Menten kinetics of EcPflD, coupled with EcFsaB and EcGldA, decrease in A340nm. Type of assay: biochemical. Particulars: substrate 1,5-AM-6P at various concentrations; 40 nM activated EcPflD, 20 mM Tris/HCl pH 7.5, 100 mM KCl, 0.4 mM NADH, glove box. As for the experimental part: The reaction system containing 20 mM Tris/HCl, (pH 7.5), 100 mM KCl, 40 nM activated EcPflD and 1,5-AM-6P with various substrate concentrations, 2 µM EcFsaB, 2 µM EcGldA, and 0.4 mM NADH was measured using a cuvette mode of an ultra-micro UV-Vis spectrophotometer (Hangzhou Miu Instruments Co., Ltd.) in a 1 cm Eppendorf cuvette inside a glove box. The decrease in A340nm was monitored at 5-second intervals.

Structures are written as SMILES.

`O=P(O)(O)OC[C@H]1OC[C@H](O)[C@@H](O)[C@@H]1O` [1,5-AG-6P, 1,5-anhydroglucitol-6-phosphate]: in assay [1], the Km was 36.5 ± 6.66 mM and the kcat was 43.38 ± 2.96 s^-1/LpYbiW.

As to `O=P(O)(O)OC[C@H]1OC[C@@H](O)[C@@H](O)[C@@H]1O` [1,5-AM-6P, 1,5-anhydromannitol-6-phosphate], in assay [2], the Km stood at 1.33 ± 0.12 mM and the kcat was 33.47 ± 0.79 s^-1/EcPflD.
